This is an account of results in paper PMC6168621 (Frontiers in Pharmacology, 2018).

Entries after “also recorded” stand apart in the source; their conditions may differ. Read-outs that look alike come from different tables or passages of the source. Marks after values point to notes of the source that are not given here.

Series [1] in a line: LC-MS/MS analysis of forensic clinical samples (urine, serum). To be noted: human forensic clinical sample; for Concentration in serum: Patient 002, serum (text: blood); for Concentration in urine: Patient 002, urine. In kind it is in vivo. From the text:
For human studies, ToxBox® analytical test kits were provided by PinPoint Testing, LLC (Little Rock, AR, United States) to streamline sample preparation and testing procedures for SCBs, confounding drugs of abuse and other non-specified NPSs. ToxBox® contained NIST-traceable, certified reference material for all standards and isotopically-labeled internal standards along with ISOLUTE® SLE+ 96-well plates manufactured by Biotage (Charlotte, NC, United States). This newly developed kit identifies not only novel SCBs and associated metabolites, but also over 200 drugs and other NPSs that often confound such analytical tests. Optima-grade formic acid, acetonitrile, and methanol were purchased from Fisher Scientific (Fair Lawn, NJ, United States). Deionized water was purified to 18.2 MΩ⋅cm resistivity using the equivalent of a Millipore laboratory water purification system. All other chemicals and supplies were provided by Cerilliant (Round Rock, TX, United States), Cayman Chemical Company (Ann Arbor, Michigan, United States), Lipomed (Cambridge, MA), Biotage (Charlotte, NC, United States) or HemoStat Laboratories (Dixon, CA, United States). Blank defibrinated sheep blood or blank human blood void of drug contamination was used for all studies.
Supported liquid extraction (SLE) procedures were optimized for 96-wellplate processing on a PerkinElmer Zephyr G3 SPE Workstation (Waltham, MA, United States). Sample extracts were analyzed using an Agilent 1260 quaternary liquid chromatography system (Santa Clara, CA, United States) coupled to an Agilent 6420 tandem mass spectrometer (LC-MS/MS). Instrument control and data acquisition relied on MassHunter LC/MS Data Acquisition (VER B.08.00). Data analysis was performed using MassHunter Quantitative Analysis (VER B.07.01 SP2).
Use of this material was approved by the Institutional Review Board of the University of Arkansas for Medical Sciences (Little Rock, AR, United States) (IRB #217584).
All blood calibration standards, QC material, and unknown samples were processed identically by mixing 0.25 ml of blank blood or unknown specimen in appropriate wells at 900 rpm for 15 min, pretreating with 0.25 mL of 0.5 M ammonium hydroxide, and then mixing for another 15 min at 900 rpm. Samples were then loaded, under gentle vacuum or positive pressure, onto a 400 mg ISOLUTE® SLE+ 96-wellplate. Samples were allowed to equilibrate for 5 min before extracting under gravity with two fractions of 900 μL of ethyl acetate. All sample extracts were evaporated to dryness under a gentle flow of nitrogen and reconstituted in 100% methanol (100 μl).
Analytical procedures used 5 μl injections on a 2.6 μm Phenomenex Kinetex Phenyl Hexyl (50 × 4.6 mm) LC column heated to 35°C. Analytes were resolved at 0.5 mL/min using mobile phase A (10 mM ammonium formate in ultrapure 18.2 MΩ⋅cm water) and mobile phase B (0.1% formic acid in methanol). Analytes are resolved using a gradient starting at 95% aqueous (Mobile Phase A) and ramping to 0% aqueous over 4 min, and holding constant for 1 min. The gradient returned to initial conditions over 0.1 min and equilibrated for an additional 1.9 min. The total run time including column equilibration period between injections was 7.0 min. Specific mass spectrometer and analyte parameters are provided in Supplementary Tables S2, S3.

Series [2] concerns the target T1, hCB1Rs (Homo sapiens, UniProt P21554).
T1 construct: host or cells: CHO-K1 (CHO-hCB1)
Briefly: biochemical. To be noted: [^3H]CP-55,940 binding, CHO-hCB1 membranes. In kind it is binding.

For series [3], the system named is human liver microsomes (HLMs). Briefly: Glucuronidation of AB-PINACA and JWH-018 metabolites in HLMs. It counts as in vitro ADME. The following applies: 50 μM substrate, HLMs with UDPGA, 90 min, 37°C. The protocol: A typical incubation mixture (30 μl of total volume) contained 100 mM Tris-HCl (pH 7.4), 5 mM MgCl2, 3 mM UDPGA, 80 μg/ml alamethicin, 50 μg HLMs, 5 mM saccharolactone, and 50 μM 4OH- or 5OH-AB-PINACA. […] After incubation at 37°C for 90 min, reactions were terminated by the addition of 30 μl cold ethanol. Following removal of the protein by centrifugation at 12,000 × g for 10 min, a 5-μl portion of the sample was subjected to UPLC. All incubations were performed in triplicate.
Parent compounds and glucuronidated metabolites were identified by the ACQUITY UPLC System with a UV detector (Milford, MA, United States). […] The column was re-equilibrated at initial conditions for 2.5 min between runs. The elution was monitored at 300 nm. The retention times of 4OH-AB-PINACA, 5OH-AB-PINACA, 4OH-AB-PINACA glucuronide, and JWH-018-M2 were 3.989, 3.994, 3.646, and 5.391 min.
FIGURE 4 Glucuronidation of 4OH- and 5OH-AB-PINACA in human liver microsomes (HLMs). 4OH-AB-PINACA (A) and 5OH-AB-PINACA (B) were incubated for 90 min with HLMs in the presence or absence of UDPGA. The terminated reaction mixtures were subjected to the UPLC analysis and the eluent was monitor with a UV detector at 300 nm and chromatograms presented. (C) The peak area of the glucuronide was estimated from the triplicate determinations. The data are presented as mean value ± SD. ND, not detected. (D) Comparison of glucuronidation of JWH-018-M2 and 4OH-AB-PINACA with HLMs. JWH-018-M2 and 4OH-AB-PINACA (5 μM) were incubated for 90 min with HLMs in the presence or absence of UDPGA. The terminated reaction mixtures were subjected to the UPLC analysis and the eluent was monitor with a UV detector at 300 nm. The remaining amount of the substrates was quantified by using standard curves of JWH-018-M2 and 4OH-AB-PINACA. The data was shown as mean value ± SD. ^∗P < 0.001. TEXT PRINTED IN THE PICTURE: (C) 5OH-AB-PINACA: Peak area (μV*sec): ND

The target of series [4] is T1, hCB1Rs. Briefly: biochemical. To be noted: CHO-hCB1 membranes; for Emax: read-out: EMAX, [^35S]GTPγS binding (maximal G-protein activation). A general note: GTPγS resists hydrolysis and so accumulates on activated G proteins.
A further series deals with CD1 mice. Briefly: Cannabinoid-elicited hypothermia (rectal temperature). It counts as in vivo. The procedure:
For in vivo studies, rimonabant was synthesized in the laboratory of Dr. Thomas E. Prisinzano at the University of Kansas School of Pharmacy (Lawrence, KS, United States), and provided to us as a generous gift. AB-PINACA, and its 4OH metabolite were obtained from Cayman Chemical Company (Ann Arbor, MI, United States). All cannabinoids were dissolved in a vehicle consisting of ethanol, emulphor and saline at a ratio of 1:1:18. Injections were administered via the intraperitoneal (IP) route at a constant volume of […]. Rimonabant was administered at a dose of 10 mg/kg, 60 min before injection of AB-PINACA or its 4OH metabolite.
Adult male CD1 mice (Charles River Laboratory, Wilmington, MA, United States) were housed three subjects per cage (15.2 cm × 25.4 cm × 12.7 cm) in a temperature-controlled room in a vivarium accredited by the Association for Assessment and Accreditation of Laboratory Animal Care, and given ad libitum food (Laboratory Rodent Diet no. 5001; PMI Feeds, St. Louis, MO, United States) and water. The vivarium was maintained at 22°C ± 2°C and 45–50% humidity, with lights set to a 12-h light/dark cycle (lights on at 6:00 AM, CST). […] All procedures were carried out in accordance with the Guide for Care and Use of Laboratory Animals as adopted and promulgated by the National Institutes of Health (NIH). The experimental protocol has been approved by the Institutional Animal Care and Use Committee (IACUC) at the University of Arkansas for Medical Sciences (UAMS).
Mice were habituated to handling and weighing prior to initiation of experimental procedures. A digital thermometer (model BAT-12, PhysiTemp, Clifton, NJ, United States) equipped with a Ret-3 mouse probe (model 50314, Stoelting Co., Dale, IL, United States) was lubricated and inserted approximately 2 cm into the rectum. Stable temperatures were obtained within ∼6 s. Rectal temperature data were sampled immediately before injection, and at 10, 30, 60, 120, 240, and 360 min after injection.
Curve-fitting was conducted utilizing GraphPad Prism® v6.0b (GraphPad Software, Inc.; San Diego, CA, United States). Non-linear regression for one-site competition was used to determine the IC50 for competition receptor binding. The Cheng-Prusoff equation ([Cheng and Prusoff, 1973]) was employed to convert the experimental IC50 values obtained from competition receptor binding experiments to Ki values (a quantitative measure of receptor affinity). Curve fitting of concentration-effect curves via non-linear regression was also employed to determine the […] or IC50 (measures of potency) and Emax or Imax (measures of efficacy) for the [^35S]GTPγS and adenylyl cyclase experiments, respectively. All dissociation constants and measurements of potency were converted to pKi, pEC50, or pIC50 values by taking the negative log of each value so that parametric tests could be used for statistical comparisons. A one-way ANOVA, followed by Tukey’s Multiple Comparison post hoc test, was used to determine statistical significance (P < 0.05). For animal studies, temperature data are shown as mean values (±SEM) for groups of subjects at each drug dose and time point. For statistical analyses, only the highest dose of AB-PINACA or its 4OH- metabolite (with and without rimonabant pretreatment) were considered. The lowest temperatures recorded for each subject within each group (regardless of when after drug administration it occurred) were compared to vehicle data using a one-way ANOVA and Tukey’s HSD post hoc test. Significance was judged at P < 0.05.

Series [5] has as its target T1, hCB1Rs. Briefly: cell-based. In kind it is cell-based. The following applies: intact CHO-hCB1 cells, 10 μM forskolin, 15 min.
[6] abbreviates: Ki, 0.2 nM [^3H]CP-55,940, Cheng-Prusoff.
[7] abbreviates: pKi, 0.2 nM [^3H]CP-55,940, mean ± SEM.
The mark [8] stands for this setting: mean ± SEM, read-out: pEC50, [^35S]GTPγS binding (converted).
[9] abbreviates: read-out: EC50, [^35S]GTPγS binding.

T1 sequence (P21554 whole entry): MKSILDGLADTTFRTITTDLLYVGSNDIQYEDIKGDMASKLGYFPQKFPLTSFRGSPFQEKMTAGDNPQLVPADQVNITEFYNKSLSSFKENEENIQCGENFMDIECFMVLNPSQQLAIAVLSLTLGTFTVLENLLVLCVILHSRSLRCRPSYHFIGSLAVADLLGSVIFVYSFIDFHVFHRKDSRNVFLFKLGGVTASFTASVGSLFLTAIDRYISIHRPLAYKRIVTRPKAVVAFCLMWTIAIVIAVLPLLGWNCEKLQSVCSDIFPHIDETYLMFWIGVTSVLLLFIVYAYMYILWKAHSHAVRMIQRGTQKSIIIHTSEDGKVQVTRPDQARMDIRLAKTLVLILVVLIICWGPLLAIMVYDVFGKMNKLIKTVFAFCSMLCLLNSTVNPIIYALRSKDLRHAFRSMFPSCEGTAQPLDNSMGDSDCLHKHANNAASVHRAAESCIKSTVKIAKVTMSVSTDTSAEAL

On to `CC(C)(C)[C@H](NC(=O)c1nn(CC2CCCCC2)c2ccccc12)C(N)=O`, for which, in series [1], the Concentration in serum amounted to 11.3 ng/mL.
Consider `CC(C)C(NC(=O)c1nn(CCCCCO)c2ccccc12)C(N)=O` (stereo not drawn) [5OH-AB-PINACA], for which the Ki at hCB1Rs [2] (setting [6]) was 452 nM; at hCB1Rs [2] (setting [7]) it was 447 nM. Moreover, the “Glucuronide formation (UPLC peak)” value in series [3] is “no such peak is observed; also recorded: glucuronidation is not involved in the clearance”. For the same molecule, the Emax on hCB1Rs [4] (mean ± SEM) was 100 ± 16.8%. Also, the EC50 was 2820 nM on hCB1Rs [4] (setting [8]) and 2740 nM on hCB1Rs [4] (setting [9]).
In series [1], `CC(C)[C@H](NC(=O)c1nn(Cc2ccc(F)cc2)c2ccccc12)C(N)=O` [AB-FUBINACA] showed a Concentration in urine of 1.1 ng/mL.
Regarding `CCCCCn1nc(C(=O)N[C@H](C(N)=O)C(C)C)c2ccccc21` [AB-PINACA, (S)-N1(1-amino-3-methyl-1-oxobutan-2-yl)-1-pentyl-1H-indazole-3-carbox-amide], the Ki was 4 nM at hCB1Rs [2] (setting [6]) and 1.78 nM on hCB1Rs [2] (setting [7]). The molecule also showed a Concentration in serum in series [1] of 1.2 ng/mL. This molecule gave a Concentration in urine in series [1] of 0.9 ng/mL. In the series on CD1 mice (10.0 mg/kg i.p., P < 0.05), the “Lowest rectal temperature, hypothermic effect vs vehicle” value is “significantly different”. Also, in the series on CD1 mice (10.0 mg/kg i.p., rimonabant 10.0 mg/kg 60 min before, P < 0.05), the “Lowest rectal temperature, drug alone vs rimonabant pretreatment” value is on record as “significantly different”. Also, the “Effect on rectal temperature” value with CD1 mice (3.0 and 10.0 mg/kg, i.p.) is “dose- and time-dependent hypothermic effects”; in the series on CD1 mice (lowest tested dose (1.0 mg/kg), i.p.), “prevents the typical injection-elicited increase in rectal temperature”. In addition, the “IMAX, cAMP accumulation (maximal adenylyl cyclase inhibition)” value at hCB1Rs [5] is given as 72.0 ± 2.1^b %. In addition, the IC50 at hCB1Rs [5] (read-out: IC50, cAMP accumulation (adenylyl cyclase inhibition)) was 3.9 nM; on hCB1Rs [5] (read-out: pIC50, cAMP accumulation (converted)), 2.24 nM. Also, the Emax at hCB1Rs [4] (mean ± SEM) stood at 71.9 ± 5.8%. Also, the results for the EC50 at hCB1Rs [4] (setting [8]) and at hCB1Rs [4] (setting [9]) were 8.71 nM and 12.8 nM, respectively.
On to `Cc1c(C(=O)NN2CCCCC2)nn(-c2ccc(Cl)cc2Cl)c1-c1ccc(Cl)cc1` [Rimonabant, reference compound], for which, in the series on CD1 mice (10 mg/kg, alone), the “Effect on rectal temperature” value is reported as “does not alter rectal temperature”.
In turn, `C=C(C)C(C)(C)CC(=O)c1cn(CCCCC(=O)O)c2ccccc12` [UR-144-pentanoic acid degradant] yielded a Concentration in serum in series [1] of 5.4 ng/mL.

As usually defined, the Ki is the dissociation constant of the complex between target and ligand, obtained from inhibition or displacement. Lower therefore signals tighter binding. A word on the Emax: it is the maximal effect, on the per cent scale that the assay sets.
